row,Compound,melting point
1,Cc1nn(CCOc2ccc(C=C3SC(=O)NC3=O)cc2)c(=O)c2ccccc12,202 °C
2,CC(Oc1ccc(Cl)c(Cl)c1)c1ccnc2ncnn12 (configuration not stated),146 to 149 °C
3,C#Cc1cccc(Nc2ncnc3[nH]cc(-c4cccc([N+](=O)[O-])c4)c23)c1,189 to 190 °C
4,CC(=O)Nc1cccc2c1CCCC2,158 °C
5,NS(=O)(=O)c1cccc(C=O)c1,108 to 109 °C
6,CCOC(=O)C(O)(Cn1cncn1)c1ccc(F)cc1 (configuration not stated),142 to 144 °C
7,C=CC(=O)Nc1cccc2c1sc1c(Nc3cccc(Br)c3)c(C#N)cnc12,286 to 287 °C
8,c1ccc(-c2[nH]c3cc4c(cc3c2-c2ccccc2)OCO4)cc1,187 to 188 °C
9,COCc1cc2cc(CN3CCOCC3)cc3c(=O)c(C(=O)NCc4ccc(Cl)cc4)cn1c23,157 to 159 °C
10,O=[N+]([O-])c1ccc(OCC(COc2ccc([N+](=O)[O-])cc2)(COc2ccc([N+](=O)[O-])cc2)COc2ccc([N+](=O)[O-])cc2)cc1,274 to 282 °C
11,CC1(C)[C@@]2(C)CC[C@]1(NCC(=O)N1CCC[C@H]1C#N)C(=O)OC2,174 to 177 °C
12,Cc1c(C(=O)Nc2ccc(N3CCC(O)CC3)c(C#N)c2)cnn1-c1ccc(F)cc1,215 to 216 °C
13,Cn1ncc2c1CC(C)(C)c1cnn(C)c1-2,105 to 108 °C
14,CC(=O)CN1CCN(c2cc3c(cc2F)c(=O)c(C(=O)O)c2n3C(C)S2)CC1 (configuration not stated),215 to 218 °C
15,COc1ccc(C2CCC(=O)N2c2ccc(OC)cc2)cc1 (configuration not stated),91.5 to 92.5 °C
16,Cc1cccc(COc2cccc(OCc3ccc4cc(F)cc(F)c4n3)c2)c1OCC(=O)O,137 to 141 °C
17,Cc1cc(C2=NN(C(N)=S)[C@H](C)Cc3cc4c(cc32)OCO4)ccc1[N+](=O)[O-],123 to 125 °C
18,CCOc1ccc2c(c1)C(=O)CCC2,34 to 36 °C
19,COc1ccc(C=Cc2cc(Cl)c(OC)c(OC)c2)cc1O,105 to 106 °C
20,CC(C)(C)OC(=O)N1CCN(C(=O)C2CCN(C(=O)OCc3ccccc3)C2)CC1 (configuration not stated),70 to 74 °C
21,O=C(c1cccs1)c1ccc(Cl)cc1Cl,75 °C
22,CCOC(=O)c1cc(C)n(-c2cccc(I)c2)c1-c1ccccc1,143 to 144 °C
23,CCCCC(=O)Nc1ccc(Cl)c(-n2nc(CCCC)c(Cc3ccc(-c4ccccc4S(=O)(=O)NC(=O)c4ccccc4Cl)cc3)c2C(=O)O)c1,> 110 °C
24,CCOC(=O)CC(c1ccccc1)C(C#N)c1ccccc1 (configuration not stated),60.5 to 63 °C
25,NC(=O)c1ccc(CCCNCC(O)c2ccccc2)s1 (configuration not stated),94 to 96 °C

row,Compound,melting point
1,NC(=C[N+](=O)[O-])N1CCCC1,120 to 125 °C
2,COc1cccc2c(O)cnnc12,160 to 163 °C
3,CCCOc1ccc(C(=O)O)c(OCc2ccc(OCCc3nc(-c4ccccc4)oc3C)cc2)c1,108 to 109 °C
4,CC(Br)C(=O)NS(=O)(=O)c1cccc2c1OC(C)(C)C2 (configuration not stated),224 to 226 °C
5,CSc1nc(O)c2c(n1)CCCS2,248 °C
6,CCCCCCCCCCCCCCP(=O)(OC)OC,32 to 33 °C
7,CC/C(CO)=C(/c1ccccc1)c1ccc(O)cc1,112 to 116 °C
8,CN1c2ccccc2N(C(=O)CN2CCCC2)c2ccccc2S1(=O)=O,175 to 177 °C
9,CCCCOCCOc1ccc(-c2ccc(N3CCC(C(=O)OC)C3)c(C=C(C)C(=O)O)c2)cc1 (configuration not stated),140 to 141 °C
10,Cc1cc(C(O)(C(F)(F)F)C(F)(F)F)cc(C)c1NCCN,158 to 161 °C
11,CCCCCCCCCCCCCCCc1ccc(C(=O)c2ccccc2)c(O)c1,46 to 47 °C
12,CC(=Nc1cc(C(F)(F)F)cc2nc(C)n(C(C)C)c12)c1ccccc1,164 to 166 °C
13,CCCc1nc(S(C)(=O)=O)c(C(=O)O)n1Cc1ccc(-c2ccccc2S(=O)(=O)NC(=O)NCC)cc1,131 °C
14,CN1CCN(C(=O)Nc2ccccc2CCc2cc(C(C)(C)C)c(O)c(C(C)(C)C)c2)CC1,134 to 137 °C
15,NC(=O)c1nccn1C1Sc2ccccc2C1=O (configuration not stated),180 °C
16,CC(C)(C)OC(=O)COc1ccc(-c2c(Cl)c(CN3C(=O)CCC3=O)nc3sc4c(c23)CCSC4)cc1,191 to 192 °C
17,CC1NC(=O)NN=C1c1ccc(N)c(Cl)c1 (configuration not stated),229 to 231 °C
18,NC1C=CC=CN1NS(=O)n1ccnc1 (configuration not stated),174 to 175 °C
19,O=[N+]([O-])c1ccccc1OCc1csc(-c2ccccc2)n1,95 °C
20,CCCN(C)C(=O)Nc1c(C(=O)c2ccccc2)[nH]c2cc(Cl)ccc12,168 to 171 °C
21,CCCCC1OC(=O)COC1=O (configuration not stated),37 to 39 °C
22,O=C(Nc1nnc(-c2ccc(Cl)cc2)s1)c1c(Cl)cccc1Cl,> 260 °C
23,COC(=O)Cc1cc2c(c([N+](=O)[O-])c1)N(C(C)=O)CC2,136 to 137 °C
24,COc1ccc(CCNc2c(-c3ccc(S(C)(=O)=O)cc3)cnn(CC(F)(F)F)c2=O)cc1OC,163 to 165 °C
25,C#CCC1(c2ccc(Cl)cc2)Cc2cc(OCC(=O)O)c(Cl)c(Cl)c2C1=O (configuration not stated),200 to 201 °C

row,Compound,melting point
1,COCCN1CCc2cc(Nc3ncc(Cl)c(Nc4ccc(C(N)=O)cc4OC)n3)c(OC)cc2CC1,100 to 112 °C
2,Cc1c(C(=O)Nc2ccc(SCCCO)c(C#N)c2)cnn1-c1ccc(Cl)cc1,165 °C
3,NC(=O)c1c(Cl)c(-c2ccccc2)n2c1CN(S(=O)(=O)c1ccc(-c3ccon3)s1)CC2,186 to 190 °C
4,CCCCOCCOc1ccc(-c2cnc(N3CCC(C)C3)c(/C=C(\C)C(=O)O)c2)cc1 (configuration not stated),106 to 108 °C
5,CCCCc1nc(C(C)(C)O)c(C(=O)O)n1Cc1ccc(-c2ccccc2C(=O)C(=O)O)cc1,165 to 170 °C
6,CC(C)CCC(O)C(CC1CCCCC1)NC(=O)C(Cc1c[nH]cn1)N(C)C(=O)C(Cc1ccccc1)OC(=O)N(C)CCN(C)C(=O)N1CCOCC1 (configuration not stated),69 to 74 °C
7,COC(=O)Nc1nc2cc(S(=O)CC3CCC3)ccc2[nH]1 (configuration not stated),198 to 206 °C
8,O=C(CCc1cccc(C(F)(F)F)c1)NNC(=O)c1ccc2[nH]ncc2c1,227 to 228 °C
9,CCCCCCCCCCCCCCCCCCOc1cc(OCCC[PH](=O)OCC)cc(N(CC(=O)O)CC(=O)O)c1 (configuration not stated),105 to 108 °C
10,O=S(=O)(NCc1ccccc1)c1ccc(Br)cc1,116 to 117 °C
11,COc1ccc(S(=O)(=O)C2(CCCC#Cc3ccc(Cl)cc3)SC(=O)NC2=O)cc1 (configuration not stated),172 to 174 °C
12,COc1ccc2c(c1)CCc1c(C#N)cccc1S2,129 to 130 °C
13,COc1ccc2c(c1)C(=O)C(=O)C1=C2OC2(CCN(CC(O)COc3ccc(F)cc3)CC2)CS1 (configuration not stated),189 to 191 °C
14,CCC(C)(C)NCc1nc2sc3c(c2c(-c2ccc(OC)c(OC)c2)c1Cl)CCN(Cc1ccccc1)C3,128 to 129 °C
15,Cc1cc(C(=O)O)ccc1C1=CCCCC1,173 to 175 °C
16,COc1cc(F)cc(-c2nn(Cc3oc4ccccc4c(=O)c3-c3cccc(F)c3)c3ncnc(N)c23)c1,115 to 117 °C
17,CCCNc1ccc([N+](=O)[O-])cc1C(=O)c1ccccc1,150 °C
18,CC(C)(Cc1ccc(OCC(=O)O)cc1)NS(=O)(=O)c1ccc(Cl)cc1,177 to 178 °C
19,Cc1oc(-c2ccccc2)nc1CCOc1ccc(CC2SC(=O)NC2=O)cn1 (configuration not stated),191 to 192 °C
20,O=C(NCCO)c1nc2ccccc2[nH]1,194 to 195 °C
21,CCOC(=O)C1=C(C)NC(c2ncsc2Cl)=NC1c1ccc(F)cc1Cl (configuration not stated),149 to 152 °C
22,[N-]=[N+]=Nc1nc(N)nc2nc[nH]c12,> 260 °C
23,Cn1ncc2[nH]c3ccc(NC(=O)c4ccccc4)cc3c(=O)c21,> 300 °C
24,CSc1ccc(C(=O)c2c(C)cc3n2CCC3C(=O)OC(C)c2ccccc2)n1C (configuration not stated),122 to 123 °C
25,CCOC(=O)C(=NNc1ccccc1)C(C)=O,75 to 76 °C

row,Compound,melting point
1,Fc1ccc2[nH]nc(-c3ccccc3)c2c1,124 to 125 °C
2,CCCc1nc(C=NNC(=O)OCC)c(C)[nH]1,184 to 188 °C
3,Nc1ccc(OC2CCN(C(=O)OCc3ccccc3)C2)cc1CS(=O)(=O)c1cccc2ccccc12 (configuration not stated),162 to 164 °C
4,COC(=O)C1(CC(CCCl)=C(C)C)C(=O)C=C(OC(C)C)CC1C (configuration not stated),76 to 77 °C
5,C=C(CC1(C)C(=O)c2ccc(Cl)cc2C1=O)c1cccc(Cl)n1 (configuration not stated),72 to 73 °C
6,CN1CCc2c(cccc2NC(=O)c2ccccc2[N+](=O)[O-])C1,196 to 198 °C
7,COCCNc1nc(C)nc2c1nnn2-c1ccc(C(C)C)cc1Br,134 to 136 °C
8,CC(=O)OCCCN(C)CCCN(C)C(=O)[C@@H]1CCCN1S(=O)(=O)c1ccc(Cl)c(COc2cccc3c(-n4ccnc4)cc(C)nc23)c1Cl,90 °C
9,O=C1c2ccccc2C(=O)N1CC#Cc1ccc(Cl)cc1C(O)c1ccccc1F (configuration not stated),158 to 160 °C
10,COc1nc(C)nc(NNC(N)=NS(=O)(=O)c2ccccc2OC(F)(F)F)n1,245 °C
11,Cc1oc(-c2ccco2)nc1COc1ccc(COc2nn(Cc3ccccc3)cc2C(=O)O)cc1-c1ccccc1,181 to 182 °C
12,CC(C)(C)c1ccc(OCC(O)CN2CCC3(CC2)CSC2=C(O3)c3cc(F)ccc3C(=O)C2=O)cc1 (configuration not stated),114 to 116 °C
13,CCc1noc(-c2ncc3[nH]c4cccc(Oc5ccc(Cl)cc5)c4c3c2COC)n1,170 °C
14,O=C1Nc2ccccc2Oc2c1[nH]c1ccccc21,233 to 234 °C
15,O=C(Cn1nccc1-c1ccc(Oc2ccc(F)cc2)cc1)N1CCOCC1,122 to 124 °C
16,O=C(O)Cc1ccc(OCCc2ccccc2)c(OCc2ccccc2)c1,116 to 119 °C
17,OCCSC(=S)Nc1ccc(Cl)cn1,108 °C
18,CSc1ccc(C2=C(c3ccc(F)cc3)C(=O)OC2)c(F)c1,118 to 122 °C
19,CCC(CC)(CC(=O)Nc1cccc(/C=C/c2cccc(CCCCCCc3ccc(OCCC(C)C)cc3)n2)c1)C(=O)O,136 to 137 °C
20,CC(C)c1nn(-c2ccccc2)c(-c2ccc(F)cc2)c1CO,138 to 140 °C
21,NN1C=Nc2ccc(Cl)cc2C1(O)c1ccccc1Cl (configuration not stated),198 °C
22,O=C1c2ccccc2C(=O)c2sccc21,232 to 234 °C

# Source: a melting point compilation (Tetko et al.; mined from patent text by program, amines drawn as free bases though some values may be those of a salt)
